Results reported in patent publication US11491192B2, “Treatment and prevention of pathogenic bacterial overgrowth using butyrate-producing bacteria” (THE CLEVELAND CLINIC FOUNDATION, priority 2018, dated 2022).

Assays:
C. difficile = assay: Brucella broth dilution MIC of common antibiotics; type: cell-based, Clostridium difficile; conditions: unit assumed
F. prausnitzii = assay: Brucella broth dilution MIC of common antibiotics; type: cell-based, Faecalibacterium prausnitzii; conditions: unit assumed
Protocol: This strain was chosen because it was isolated from human feces, and based on its ability to hydrolyze PS, yield butyrate, and utilize lactate. Belenguer et al., Applied Environmental Microbiology, 72:3593-3599 (2006) Bacteria was grown in conditions and medium as recommended by ATCC, briefly at 37° C. in anaerobic gas biological mix of 80% nitrogen, 10% carbon dioxide, 10% hydrogen, ATCC pre-reduced chopped meat broth (ATCC 1703). Overnight culture of FP was lyophilized on […] system and reconstituted in pre-reduced sterile phosphate buffered saline (PBS) just prior to treatment. Brucella broth dilution MIC of common antibiotics for FP and CD strains were determined using standard methods for susceptibility testing of anaerobic bacteria (Table 1).

[1] = tested on: sodium-coupled butyrate transporter, butyrate receptor, tight junction proteins and NHE3; conditions: supplementation during broad spectrum antibiotic treatment in mice; Cresci et al. 2013; cited from earlier work
[2] = Brucella broth dilution, CD strain used in this study (VA17)
[3] = Brucella broth dilution, FP strain used in this study (ATCC 27766)

CO[C@@]1(NC(=O)Cc2cccs2)C(=O)N2C(C(=O)O)=C(COC(N)=O)CS[C@@H]21 [Cefoxitin]
C. difficile MIC (C. difficile; [2]): 250 µg/mL | F. prausnitzii MIC (F. prausnitzii; [3]): < 2 µg/mL

CCCC(=O)OCC(COC(=O)CCC)OC(=O)CCC [tributyrin]
intestinal losses of sodium-coupled butyrate transporter, butyrate receptor, tight junction proteins and NHE3 [1]: protects against intestinal losses

CCC[C@@H]1C[C@@H](C(=O)N[C@@H]([C@H]2O[C@H](SC)[C@H](O)[C@@H](O)[C@H]2O)[C@H](C)Cl)N(C)C1 [Clindamycin]
C. difficile MIC (C. difficile; [2]): 500 µg/mL

Cc1ncc([N+](=O)[O-])n1CCO [Metronidazole]
C. difficile MIC (C. difficile; [2]): < 2 µg/mL | F. prausnitzii MIC (F. prausnitzii; [3]): < 2 µg/mL

Piperacillin/Tazaba
C. difficile MIC (C. difficile; [2]): 15.6 µg/mL | F. prausnitzii MIC (F. prausnitzii; [3]): 8 µg/mL

CN[C@H](CC(C)C)C(=O)N[C@H]1C(=O)N[C@@H](CC(N)=O)C(=O)N[C@H]2C(=O)N[C@H]3C(=O)N[C@H](C(=O)N[C@H](C(=O)O)c4cc(O)cc(O)c4-c4cc3ccc4O)[C@H](O)c3ccc(c(Cl)c3)Oc3cc2cc(c3O[C@@H]2O[C@H](CO)[C@@H](O)[C@H](O)[C@H]2O[C@H]2C[C@](C)(N)[C@H](O)[C@H](C)O2)Oc2ccc(cc2Cl)[C@H]1O [Vancomycin]
C. difficile MIC (C. difficile): < 2 µg/mL | F. prausnitzii MIC (F. prausnitzii): < 2 µg/mL
